Patent EP4722205A1, “HETEROCYCLIC COMPOUND AND NOXIOUS ARTHROPOD-CONTROLLING COMPOSITION CONTAINING SAME” (Sumitomo Chemical Company, Limited, priority 2023, dated 2024)

How the values were obtained:
Type in all cases: in vivo
[1] = test system: cotton aphids (Aphis gossypii); experiment: Test Method 11: foliar spray on cucumber seedling infested with cotton aphids (Formulation example 5); settings: 120 h, spray 10 mL/seedling, examined after 5 days, 25°C, read-out: controlling value
[2] = test system: cotton aphids (Aphis gossypii); experiment: Test Method 1: foliar spray on cucumber seedling infested with cotton aphids (Formulation example 1); settings: 120 h, spray 10 mL/seedling, examined after 5 days, 25°C, read-out: controlling value
[3] = test system: diamondback moth (Plutella xylostella); experiment: Test Method 10: sprayed cabbage seedling, third instar diamondback moth (Formulation example 5); settings: 144 h, third instar larvae, after 6 days, 25°C, read-out: controlling value
Method: (§1) The following tests in the test examples below were conducted at 25°C.
(§2) Cabbage (Brassicae oleracea) seedling (on the developmental stage of the third to fourth true leaf) is planted in a cup, and the diluted solutions are sprayed into the seedling at a ratio of 20 mL/seedling. Thereafter, ten (10) diamondback moth (Plutella xylostella) at the third instar larval stage are released onto the seedling. After 6 days, the number of the surviving insects is counted, and the mortality of insects is calculated by the following equation. [formula]

[4] = test system: Western corn rootworms (Diabrotica virgifera virgifera); experiment: Test Method 5: corn seedling immersion, Western corn rootworm; settings: 120 h, read-out: mortality of insects
Method: (§3) Next, an efficacy of the present compound on controlling harmful arthropods is shown by Test examples. The following tests in the test examples below were conducted at 25°C.
Each 1 mg of the test compounds is dissolved into 50 µL of a mixed solution of polyoxyethylene sorbitan monolaurate and acetone (polyoxyethylene sorbitan monolaurate: acetone = 5 : 95 (v/v ratio)). Thereto is added water containing 0.03% by volume of Shindain (registered trademark) to prepare a diluted solution containing a prescribed concentration of the test compound.
A young entire seedling of Corns (Zea mays) is immersed into the diluted solution for 30 seconds. Thereafter, each two grains of the seedlings are installed in a plastic petri dish ([…]), and 10 Western corn rootworms (Diabrotica virgifera virgifera) at the second instar larval stage are released into the dish. After 5 days, the number of the dead insects is counted, and the mortality of insects is calculated by the following equation. Mortality(%) = (Numberofdeadinsects/10) × 100 [formula]

[5] = test system: diamondback moth (Plutella xylostella); experiment: Test Method 4: sprayed cabbage leaves fed to second instar diamondback moth; settings: 120 h, second instar larvae, after 5 days, 25°C, read-out: mortality of insects
Method: as §3
Test compounds are made to a formulation according to a similar method to that described in the Formulation example 1, and thereto is added water containing 0.03 v/v% of Shindain (registered trademark) to prepare a diluted solution containing a prescribed concentration of the test compound.
(§4) Cabbage (Brassicae oleracea) seedling (on the developmental stage of the second to third true leaf) is planted in a cup, and the diluted solutions are sprayed into the seedling at a ratio of 20 mL/seedling. Thereafter, the stem and leaf thereof are cut out and then is installed into a cup that is covered with filter paper on the bed of the cup. Five (5) diamondback moth (Plutella xylostella) at the second instar larval stage are released into the cup. After 5 days, the number of the surviving insects is counted, and the mortality of insects is calculated by the following equation. [formula]

[6] = test system: common house mosquitos (Culex pipiens pallens); experiment: Test Method 12: mosquito larvae released into diluted solution; settings: 24 h, last instar larvae, after 1 day, 25°C, read-out: controlling value
Method: as §1
Into the diluted solution, 30 common house mosquitos (Culex pipiens pallens) at the last instar larval stage are released, and after 1 day, the state of the house mosquito larvae is examined, and the mortality of insects is calculated by the following equation. [formula]

[7] = test system: cotton worm (Spodoptera litura); experiment: Test Method 9: sprayed cabbage seedling, third instar cotton worm (Formulation example 5); settings: 144 h, third instar larvae, after 6 days, 25°C, read-out: controlling value
Method: as §1
as §2, with “cotton worm (Spodoptera litura)” for “diamondback moth (Plutella xylostella)”

[8] = test system: cotton worm (Spodoptera litura); experiment: Test Method 3: sprayed cabbage leaves fed to second instar cotton worm; settings: 120 h, second instar larvae, after 5 days, 25°C, read-out: mortality of insects
Method: as §1
as §4, with “cotton worm (Spodoptera litura)” for “diamondback moth (Plutella xylostella)”

[9] = test system: housefly (Musca domestica); experiment: Test Method 8: coated container contact test, housefly; settings: 24 h, 40 mg/m^2, female adults, after one (1) day, 25°C, read-out: mortality of insects
Method: as §3
(§5) Acetone solution in which test compounds are adjusted to 800 ppm are prepared, and the solution is poured into a container having an internal volume of 20 mL, and the solution is coated uniformly on an inner face of the container such that the test compound is made to be 40 mg/m^2, and the container is then dried.
Five (5) housefly (Musca domestica) female adults are placed in the container, and the cup is covered with the lid. After the prescribed timing is passed, the state of the housefly is examined, and the mortality of insects is calculated by the following equation. [formula]

[10] = test system: German cockroach (Blattella germanica); experiment: Test Method 6: coated container contact test, German cockroach; settings: 72 h, read-out: mortality of insects
Method: as §3
as §5, with “50” for “20”
Five (5) German cockroach (Blattella germanica) male adults are placed in the container, and the cup is covered with the lid. After the prescribed timing is passed, the state of the German cockroach is examined, and the mortality of insects is calculated by the following equation. [formula]

Structure (SMILES)	mortality at 50 ppm [1]	mortality at 200 ppm [1]	mortality at 500 ppm [2]	mortality at 50 ppm [3]	mortality at 200 ppm [3]	mortality at 200 ppm [4]	mortality at 500 ppm [5]	mortality at 3.5 ppm [6]	mortality at 50 ppm [7]	mortality at 200 ppm [7]	mortality at 500 ppm [8]	mortality at 40 mg/m2 [9]	mortality at 40 mg/m2 [10]
CCS(=O)(=O)c1c(C(=O)N(C)c2nc3ccc(C(F)(F)F)cc3s2)nc2ccc(I)cn12 [compound 26]	≥ 90%	≥ 90%	≥ 90%	≥ 80%	≥ 80%	≥ 80%	≥ 80%	≥ 90%					
CCS(=O)(=O)c1c(C(=O)N(C)c2nc3ccc(F)c(F)c3s2)nc2ccc(I)cn12 [compound 33]	≥ 90%	≥ 90%	≥ 90%	≥ 80%	≥ 80%	≥ 80%	≥ 80%	≥ 90%	≥ 80%	≥ 80%	≥ 80%	≥ 80%	
CCS(=O)(=O)c1c(C(=O)N(C)c2nc3cc(F)c(F)cc3s2)nc2ccc(I)cn12 [compound 34]	≥ 90%	≥ 90%	≥ 90%	≥ 80%	≥ 80%	≥ 80%	≥ 80%	≥ 90%	≥ 80%	≥ 80%	≥ 80%	≥ 80%	
CCS(=O)(=O)c1c(C(=O)N(C)c2nc3cc(F)c(F)c(F)c3s2)nc2ccc(Br)cn12 [compound 44]		≥ 90%	≥ 90%	≥ 80%	≥ 80%		≥ 80%	≥ 90%	≥ 80%	≥ 80%	≥ 80%	≥ 80%	≥ 80%
CCS(=O)(=O)c1c(C(=O)N(C)c2nc3c(F)c(F)c(F)c(F)c3s2)nc2ccc(I)cn12 [compound 77]						≥ 80%	≥ 80%		≥ 80%	≥ 80%	≥ 80%	≥ 80%	
CCS(=O)(=O)c1c(C(=O)N(C)c2nc3cc(Cl)c(F)cc3s2)nc2ccc(I)cn12 [compound 101]				≥ 80%	≥ 80%	≥ 80%	≥ 80%		≥ 80%	≥ 80%			
CCS(=O)(=O)c1ccc(NC)nc1C(=O)N(C)c1nc2cc(F)c(F)c(F)c2s1 [compound 138]	≥ 90%	≥ 90%	≥ 90%	≥ 80%	≥ 80%		≥ 80%	≥ 90%	≥ 80%	≥ 80%	≥ 80%	≥ 80%	
CCS(=O)(=O)c1ccc(NC2CC2)nc1C(=O)N(C)c1nc2cc(F)c(F)c(F)c2s1 [compound 139]	≥ 90%	≥ 90%		≥ 80%	≥ 80%		≥ 80%	≥ 90%	≥ 80%	≥ 80%	≥ 80%	≥ 80%	
